{"source": "patent US20220133894A1", "about": "“BISPHOSPHONATE-LINKED COMPOUNDS” (OREGON HEALTH & SCIENCE UNIVERSITY, priority 2019, published 2022)", "key": {"RAW 267.4 cells [1]": {"test_system": "RAW 267.4 cells", "assay": "Osteo Assay pit formation, osteoclast-mediated bone degradation", "assay_type": "cell-based, mouse"}, "PC3-luc cells": {"test_system": "PC3-luc cells", "assay": "PCa intracardiac injection model, bone destruction by CT and survival", "assay_type": "in vivo, mice"}, "[2]": {"test_system": "prostate specific antigen (PSA)", "assay": "PSA expression by qRT/PCR in LNCaP cells", "assay_type": "cell-based, human", "settings": "LNCaP cells in androgen depleted media", "protocol": "(§1) Cells were cultured in media depleted of androgen and after a washout of 72 hrs were treated with the synthetic androgen R1881, KBU2046, enzalutamide and/or vehicle (control), and resultant effects upon induction of the androgen-responsive gene, prostate specific antigen (PSA) were measured (FIG. 3A).\n(§2) LNCaP or VCaP cells cultured in hormone free media were treated with R1881 (R), KBU2046 (46) and/or enzalutamide (E). (FIGS. 3A and 3B) Effects on AR-responsive gene expression. PSA expression was measured by qRT/PCR, normalized to GAPDH and expressed as a percent of control cells (N=3 replicates); * denotes P<0.05 for groups separated by bar. (FIGS. 3C and 3D) Effects on cell growth. Three day growth assays were performed. Data are the number of viable cells, expressed as % of control (N=3 replicates); * P<0.05 compared to control. (E) Effects on AR activation. Western blots of nuclear (N) and cytoplasmic (C) preparations of cell extracts were probed for AR, laminin 1 or α-tubulin. (FIGS. 3F and 3G) Effects on tumor outgrowth after androgen deprivation therapy. LNCaP/AR-luc cells were implanted subcutaneously (N=6 mice/cohort) or orthotopic (N=15 mice/cohort were implanted; N=5 yielded tumors) into castrate mice, treatment with KBU2046 began as noted, and weekly IVIS imaging performed. Data are tumor size, expressed as luminescence intensity. All data are expressed as mean±SEM.\n(§3) RNA was isolated and qRT/PCR performed as previously described by us (Ding et al., J Biomol Tech 18, 321-330 (2007)). Resultant data were analyzed using the 2^−ΔΔt method (Livak et al., Methods 25, 402-408 (2001)), normalized to GAPDH, for the following primer/probe sets (ABI) PSA (Hs02576345_m1) and GAPDH (Hs99999905_m1). Assays were performed in triplicate, and were repeated."}, "[3]": {"test_system": "prostate specific antigen (PSA)", "assay": "PSA expression by qRT/PCR in VCaP cells", "assay_type": "cell-based, human", "settings": "VCaP cells in androgen depleted media", "protocol": "as §1, §2, §3"}, "RAW 267.4 cells [4]": {"test_system": "RAW 267.4 cells", "assay": "Osteoclast morphology and maturation (actin/DAPI immunofluorescence, TRAP staining)", "assay_type": "cell-based, mouse", "settings": "Raf1-specific inhibitors; TRAP staining, multinucleated cells, resorptive cavity formation", "source_text": "Treatment of RAW 267.4 cells with KBU2046 induces several structural and functional changes. It reduces RANKL-mediated formation of multinucleated cells, and those that do form have lower numbers of nuclei (see 40× panels, FIG. 4B). The characteristic prominent actin ring (white arrow) surrounding the resorptive cavity (yellow arrow) is readily apparent in control cells treated with RANKL ligand, but is lacking in KBU2046-treated cells (100×, panels). Consistent with it inhibiting maturation of RAW 267.4 cells, TRAP staining is decreased in KBU2046-treated cells (FIG. 4C).\nFIG. 4 represents the KBU2046 inhibition of osteoclast function. FIG. 4A compares effects on Raf1 activation. RAW 267.4 cells were treated with RANKL for 4 days, treated with 10 μM KBU2046 for the indicated time periods, and Western blot for the denoted proteins performed. (B) Effects on cell morphology. RAW 267.4 cells were treated with RANKL and with KBU2046 for 4 days, or not, and denoted, and stained for actin (green) and DAPI (blue); white arrow denotes an actin ring, yellow arrow a resorptive cavity. Representative immunofluorescent images are depicted. (C) Tartrate resistant acid phosphatase (TRAP) expression. Cells were treated as in B, stained for TRAP (denoted by presence of red), and representative images from light microscopy depicted. (D) Bone degradation. RAW 267.4 cells were plated onto Osteo Assay plates, treated with RANKL for 6 days and with KBU2046 (or vehicle for controls) as indicated and bone surface area quantified. Data are the mean±SEM (N=3 replicates) of bone surface area, expressed as the percentage of control cells; * denotes P<0.05 compared to control.\nRaw 264.7 cells were grown in differentiation medium (described below), with or without KBU2046, for 4 days on a Chamber Slide (Nunc Lab-Tek). Chambers were washed once with PBS, followed by 10-minute fixation in cold 10% neutral-buffered formalin (VWR) and a post-fixation wash with PBS. […] The cells were then incubated for 2 hours at 4° C. in Dylight Phallodin (Cell Signaling technology, #12935) antibody diluted 1:40 in 1×PBS with 1% BSA and 0.3% Triton X-100. Subsequently, the slide was washed once with PBS, a coverslip mounted with ProLong Gold Antifade Reagent with DAPI (Cell Signaling Technology, #8961), and imaged on a Confocal Microscope (Nikon/Yokogawa Spinning Disc)."}, "PC3-M cells": {"test_system": "PC3-M cells", "assay": "PCa subcutaneous implantation, tumor growth", "assay_type": "in vivo", "settings": "oral 80 mg KBU2046/kg, weekly intraperitoneal docetaxel 20 mg/kg, KBU2046 added to control or docetaxel treated mice", "protocol": "FIG. 1A depicts the effect of chemotherapy on the growth of androgen independent PC3-M PCa cells in vitro. Data are the mean±SEM (N=3 replicates) of cell viability in a 3 day growth assay in the presence of 10 μM KBU2046 or vehicle (control) treated with docetaxel or cabazitaxel. FIG. 1B depicts the effect of chemotherapy on the growth of androgen independent PCa cells in vivo. Mice received subcutaneous implants of PC3-M cells, were monitored until tumors were detectable (250 mm^3), and then treated daily with oral 80 mg KBU2046/kg (46) or vehicle (CO) and with weekly intraperitoneal docetaxel (doc) at 0 or 20 mg/kg, beginning on day 1, and tumor size measured. Data are mean±SEM, with N=20 mice per cohort.\nPCa subcutaneous implantation: 2.5×10^5 PC3-M cells in sterile PBS were implanted into the right flank of 6-7 week old male athymic nude mice (Charles River) and tumor growth measurements were performed twice a week as previously described by us (Gordon et al., Chemotherapy-induced monoamine oxidase expression in prostate carcinoma functions as a cytoprotective resistance enzyme and associates with clinical outcomes. PLoS One 9, e104271 (2014)). […] Tumor measurements were obtained in a blinded fashion, and tumor volumes were calculated with the following formula: length×(width)^2×0.5."}, "PC3-M-luc cells": {"test_system": "PC3-M-luc cells", "assay": "PCa orthotopic implantation, primary tumor growth and lung metastasis", "assay_type": "in vivo, mice", "protocol": "To assess the efficacy of a spectrum of docetaxel concentrations, mice received orthotopic implants of PC3-M-luc cells, were treated with 0, 10 or 20 mg/kg docetaxel, and tumor growth monitored with weekly IVIS imaging. […] Subsequently, mice with orthotopic implants of PC3-M-luc cells were treated with docetaxel, KBU2046, docetaxel+KBU2046 or vehicle, as denoted, and effects on primary tumor growth and lung metastasis quantified (FIGS. 2A, 2B, and 2C).\nCohorts of N=10 mice bearing orthotopic implants of PC3-M-luc cells were treated daily with 150 mg/kg KUB2046 (46), intraperitoneal docetaxel 7.5 mg/kg weekly (doc), the combination (doc+46), or with oral and intraperitoneal vehicle (CO). KBU2046 treatment began 3 days before implantation and docetaxel began 1 week after. (A) Lung metastasis measured by qPCR for human Alu sequences, expressed as percent control (B) Weekly IVIS imaging of tumor. (C) Tumor weight. * denotes P<0.05 for differences between cohorts denoted by bars. All data are mean±SEM.\nPCa orthotopic implantation: Orthotopic implantation of 2.5×10^5 PC3M-luc into 7-8 week old male athymic mice was performed as previously described by us (5, 52 Xu et al., above; and Pavese et al., J Vis Exp, e50873 (2013)). Daily oral gavage treatment with 150 mg/kg KBU2046 or was initiated 3 days prior to implantation and continued throughout the duration of the study. Weekly IP injections with 7.5 mg/kg docetaxel or control were administered beginning one week post implantation. Primary tumor out growth was monitored via weekly IVIS imaging. At the completion of the study the primary tumor was resected and weighed and lungs were resected and snap frozen. To determine the human PCa metastatic burden in each mouse lung, the snap frozen tissue was pulverized, DNA isolated and Alu-sequencing performed as previously described (19). […] (SEQ ID NO: 3). The 144RH probe was labeled with a 5′ fluorescent reporter (6-FAM) and a 3′ fluorescent quencher (Black Hole Quencher). The relative content of human DNA was calculated with using the comparative CT method, CT (sample)-CT(negative control). All samples were run in triplicate and were repeated."}, "VCaP cells": {"test_system": "VCaP cells", "assay": "SRB growth inhibition assay, VCaP", "assay_type": "cell-based, human", "settings": "10 μM enzalutamide, 10 μM KBU2046 added to control or enzalutamide treated cells, 72 hours", "protocol": "as §2\n(§4) Enzalutamide mediated growth inhibition was assessed using Sulforhodamine B (SRB) growth inhibition assays, were performed as previously described (49). In brief, LNCaP and VCaP cells were pre-incubated in charcoal-striped medium for 48 hours and then seeded (1.9×10^4) in 96-well plates. […]"}, "LNCaP cells": {"test_system": "LNCaP cells", "assay": "SRB growth inhibition assay, LNCaP", "assay_type": "cell-based, human", "settings": "10 μM enzalutamide, 10 μM KBU2046 added to control or enzalutamide treated cells, 72 hours", "protocol": "as §2, §4"}, "[5]": {"settings": "Raf1-specific inhibitors, Supplementary Fig. S5"}}}
{"compound": "O=C(CCOCCNC(=O)COc1ccc2c(c1)OCC(c1ccc(F)cc1)C2=O)NCCCC(O)(P(=O)(O)O)P(=O)(O)O", "note": "(stereo not drawn) [Compound E (n=1), (4-(3-(2-(2-((3-(4-fluorophenyl)-4-oxochroman-7-yl)oxy)acetamido)ethoxy)propanamido)-1-hydroxybutane-1,1-diyl)bis(phosphonic acid)]", "values": [{"measurement": "osteoclast-mediated bone degradation", "setting": "RAW 267.4 cells [1]; experimental compounds with RANKL, day 6, FIGS. 6A-6L", "result": "inhibiting"}, {"measurement": "survival", "setting": "PC3-luc cells; 10, 100 or 1000 ug/kg weekly intraperitoneal, from 1 week before IC injection", "result": "prolongs"}, {"measurement": "bone destruction in the jaw", "setting": "PC3-luc cells; 10, 100 or 1000 μg/kg weekly intraperitoneal, from 1 week before IC injection, CT", "result": "inhibits"}]}
{"compound": "C[C@]1(O)CC[C@H]2[C@@H]3CCC4=CC(=O)CCC4=C3C=C[C@@]21C", "note": "[Compound R1881]", "values": [{"measurement": "PSA expression", "setting": "[2]", "result": "significantly increased"}, {"measurement": "PSA expression", "setting": "[3]", "result": "significantly increased"}]}
{"compound": "O=C1Nc2ccc(I)cc2/C1=C/c1cc(Br)c(O)c(Br)c1", "note": "[GW5074]", "values": [{"measurement": "RANKL-induced osteoclast maturation", "setting": "RAW 267.4 cells [4]", "result": "inhibit"}, {"measurement": "osteoclast-mediated bone degradation", "setting": "RAW 267.4 cells [1]; [5]", "result": "inhibit"}]}
{"compound": "Cc1ccc(C(=O)Nc2cccc(C(F)(F)F)c2)cc1Nc1nc(-c2cccnc2)nc2c1cnn2C", "note": "[NVP-BHG712]", "values": [{"measurement": "RANKL-induced osteoclast maturation", "setting": "RAW 267.4 cells [4]", "result": "inhibit"}, {"measurement": "osteoclast-mediated bone degradation", "setting": "RAW 267.4 cells [1]; [5]", "result": "inhibit"}]}
{"compound": "O=P(O)(O)C(O)(Cn1ccnc1)P(=O)(O)O", "note": "[ZA, zoledronic acid]", "values": [{"measurement": "improvement of femur bone density compared to control", "setting": "PC3-luc cells; oral 150 mg KBU2046/kg daily, intraperitoneal ZA 100 μg/kg weekly, CT", "result": "56±2.7", "unit": "%"}]}
{"compound": "Cc1ccc(NC(=O)c2cccc(N(C)C)c2)cc1NC(=O)c1ccc(O)cc1", "note": "[ZM336372]", "values": [{"measurement": "RANKL-induced osteoclast maturation", "setting": "RAW 267.4 cells [4]", "result": "inhibit"}, {"measurement": "osteoclast-mediated bone degradation", "setting": "RAW 267.4 cells [1]; [5]", "result": "inhibit"}]}
{"compound": "CC(=O)O[C@@]12CO[C@@H]1C[C@H](O)[C@@]1(C)C(=O)[C@H](O)C3=C(C)[C@@H](OC(=O)[C@H](O)[C@@H](NC(=O)OC(C)(C)C)c4ccccc4)C[C@@](O)([C@@H](OC(=O)c4ccccc4)[C@H]21)C3(C)C", "note": "[docetaxel]", "values": [{"measurement": "tumor growth", "setting": "PC3-M cells", "result": "significantly inhibited"}, {"measurement": "prostate tumor growth kinetics by weekly IVIS imaging", "setting": "PC3-M-luc cells; cohorts receiving docetaxel 7.5 mg/kg weekly vs not", "result": "slower growth"}, {"measurement": "tumor growth by weekly IVIS imaging", "setting": "PC3-M-luc cells; orthotopic PC3-M-luc, 0, 10 or 20 mg/kg docetaxel, dose-dependent", "result": "significantly inhibited"}, {"measurement": "decrease of tumor weight compared to control", "setting": "PC3-M-luc cells; orthotopic PC3-M-luc, 150 mg/kg KBU2046 daily, docetaxel 7.5 mg/kg weekly", "result": 49, "unit": "%"}, {"measurement": "decrease of lung metastasis compared to control (human Alu qPCR)", "setting": "PC3-M-luc cells; orthotopic PC3-M-luc, 150 mg/kg KBU2046 daily, docetaxel 7.5 mg/kg weekly intraperitoneal", "result": 23, "unit": "%"}]}
{"compound": "CNC(=O)c1ccc(N2C(=S)N(c3ccc(C#N)c(C(F)(F)F)c3)C(=O)C2(C)C)cc1F", "note": "[enzalutamide]", "values": [{"measurement": "cell growth", "setting": "VCaP cells", "result": "significantly inhibited"}, {"measurement": "cell growth", "setting": "LNCaP cells", "result": "significantly inhibited"}, {"measurement": "PSA expression", "setting": "[2]", "result": "decreased"}, {"measurement": "PSA expression", "setting": "[3]", "result": "decreased"}]}
